Data from patent US20090041672A1, “Drug for Treating or Diagnosing Vascular Lesion in the Skin or the Subcutaneous Soft Tissue Caused by Light Irradiation” (priority 2005, published 2009).

Experiments:
cock's combs = test: PDT of cock's comb, model of cutaneous vascular lesion (capillary hemangioma); format: in vivo, cocks
From the text: Animals Used: cocks (bodyweight: 2.5 to 3.5 kg) of 22 to 24 weeks old
Photosensitizer: talaporfin sodium
Laser Used Panalas6405, diode laser, wavelength: 664.5 nm±2 nm, output power: 75-500 mW
(§1) As the model of PDT to cutaneous vascular lesion (capillary hemangioma), cock's combs were used. Cock's comb is recognized as a model of cutaneous vascular lesion (capillary hemangioma) in this field. To each cock of 22 to 24 weeks old (bodyweight: about 2.5 kg), talaporfin sodium solution (concentration: 5 mg/ml) was intravenously injected from the brachial vein in an amount of 2.5 mg/kg bodyweight of the cock, in terms of the amount of talaporfin sodium. Immediately after the intravenous injection, the cock's comb was irradiated with a diode laser (wavelength: 664.5 nm±2 nm, irradiation power density: 127 mW/cm^2, energy density: 25 J/cm^2 or 50 J/cm^2). As an experimental group, (i) PDT-performed group was made, and as control groups, (ii) a group to which only the intravenous injection of talaporfin sodium was performed, and (iii) a group to which only laser irradiation was performed, were made. The mean plasma talaporfin sodium level at the end of the treatment was also measured.
Morphological changes during 7 days after the treatment were visually observed, and the cocks were subjected to autopsy 7 days after the treatment. Tissue preparations were stained by hematoxylin eosin staining by a conventional method, and as required, PTAH staining (fibrin staining) and AZAN staining (collagen fiber staining) were added.

[1] = Plasma talaporfin sodium level in cocks at the end of treatment; format: in vivo; conditions: 2.5 mg/kg intravenous, at end of laser treatment
Procedure: as §1

skin of the upper arm = test: Safety tests to human: PDT on skin of the upper arm of normal individuals; format: in vivo
Procedure: (§2) To 2 normal individuals (Subject A: normal person, Subject B: normal person), talaporfin sodium was intravenously administered at a dose of 0.2 mg/kg. After the administration, the skin of the upper arm was irradiated with a diode laser (irradiation conditions: irradiation energy of 25 J/cm^2 and 50 J/cm^2 at an […] of 127 mW/cm^2, diameter of irradiated spots: 1 cm in both spots). Subject A was followed up for 2 weeks and Subject B was followed up for 2 months.

[2] = Plasma drug level in human after PDT; format: in vivo; conditions: from actually measured plasma level of Example 2
Procedure: as §2
Further, it was confirmed from the change with time of the plasma drug level measured after the PDT that the plasma level at which the photosensitive reaction no longer occurs is attained at 24 to 48 hours from the intravenous injection. This period of time is almost coincident with the period of time deduced from the model of pharmacokinetics, so that the correctness of the above-described estimated required shading time was confirmed.

[3] = PDT-performed group, autopsy 7 days after treatment
[4] = control group, only drug administration, no laser

## Tetrasodium salt of mono-L-aspartyl chlorin e6 [talaporfin sodium]
cock's combs; [3]
  histological findings: blood vessels in the dermis (hematoxylin eosin): disappearance of vasodilated blood vessels in the dermis was observed
  histological findings: hyperplasia of collagen fibers in the stroma: not observed
  histological findings: stratum corneum epidermidis and stratum basale epidermidis in the irradiated site: the continuity of the stratum corneum epidermidis was maintained, and the stratum basale epidermidis was also conserved
  histological findings: vascular endothelial cells in the dermis (highly magnified image): disappearance of vascular endothelial cells was observed
cock's combs; PDT-performed group: 2.5 mg/kg i.v. + diode laser 664.5 nm, 127 mW/cm^2, 25 or 50 J/cm^2, observed 7 days
  visual findings: decoloration reaction: decoloration reaction was observed at the site coincident with the irradiated site
cock's combs; [4]
  histological findings: No changes were observed
  visual findings: decoloration reaction: Decoloration reaction was not observed
[1]
  mean plasma talaporfin sodium level at the end of treatment: 2.3 µg/mL
Skin of the upper arm; 0.2 mg/kg i.v. + diode laser 25 and 50 J/cm^2, from immediately after the PDT
  edema in the irradiated sites and vicinities: slight edema was observed
Skin of the upper arm; 0.2 mg/kg i.v. + diode laser 25 and 50 J/cm^2, up to 2 days after the treatment
  erythema in the irradiated sites: slight erythema was observed
Skin of the upper arm; 0.2 mg/kg i.v. + diode laser, one week after the treatment
  erythema in the irradiated sites: the erythema had been disappeared
Skin of the upper arm; Subject B, 0.2 mg/kg i.v. + diode laser
  side effects at two months from the treatment: no side effects were observed
[2]
  amount of talaporfin sodium needed in human for attaining the plasma level found in cocks (2.3 μg/mL): 0.2 mg/kg
